US20150087722A1, “TREATMENT FOR BREAST TUMOR CELL METASTASIS” (China Medical University, priority 2012, published 2015)

What was measured:
[1] = system: PI3K and Akt in breast tumor cells; experiment: western blotting of PI3K and Akt and phosphorylation; assay type: cell-based, human; settings: 2 μM, 0-120 min
Procedure: (§1) The steps of western blotting include: washing cells with PBS twice at 4° C.; adding a lysis buffer and rubbing the cells by a rubbr policeman so as to lyse cells; putting the lysed cell solution into a 1.5 ml microcentrifuge tube and shaking for 1 min; centrifuging at 12000 rpm for 10 min and taking the supernatant; measuring concentration of the protein through a Bio-Rad protein assay kit; and storing the remained extracted protein solution at −70° C.; taking 100 μg protein solution and adding a SDS/protein loading buffer having the same volume, where the SDS/protein loading buffer has a concentration two times larger than the protein solution; boiling the mixture of the protein solution and the SDS/protein loading buffer at 100° C. for 10 min; cooling and loading the protein samples in each hole of gel; adjusting the voltage to 100 V and running the protein samples on the gel until the tracking dye in the sample buffer reaches the bottom of the gel; and subsequently transferring the protein from the gel using electrophoresis. […] Then luminescence image equipment was used, where the PVDF was placed onto a black metal plate by a plastic pincer and the face including protein was upwards, a 1:1 mixed Chemiluminesent Substrate was added into the membrane and the exposure time depends on the fluorescence intensity of antibodies. […]

[2] = system: MMP-9 and MMP2 generated by cells induced by TNF-α; experiment: Zymography enzyme activity assay of cells stimulated by TNF-α; assay type: cell-based; settings: 20 μM, 10 ng/mL TNF-α
Procedure: In the Zymography enzyme activity assay, the cells (1×10^6) were planted in a 6-well plate. The next day after the cells were adhered to the wall, the cells were cultured in a serum free DMEM culture medium at an atmosphere of 5% CO2 in an incubator at 37° C. for 24 h. The compound II in different doses were added into the DMEM culture medium. In other test groups, the compound I was added, TNF-α/TGF-β were added or the compound I and TNF-α/TGF-β were added into the DMEM culture medium, wherein the concentration of compound I and TNF-α/TGF-β were […] and 10 ng/ml, respectively. The cells were cultured in the culture medium for 2 h and then washed with PBS. The cell culture medium was putted into a microcentrifuge tube and centrifuged for 10 min at 1500 rpm. The supernatant was taken to perform a protein gel electrophoresis (SDS-PAGE), so as to separate the proteins. Afterwards, the Gelatin or Casein was regarded as the substrate to analysis the enzyme activity of the proteins. Referring to FIG. 20, the Zymography enzyme activity assay was performed to detect the effect of the compound II on the enzyme activity of MMP-9 and MMP2 generated by cells induced and stimulated by 10 ng/mL TNF-α. The Zymography enzyme activity assay was described as the test example 4-1. […] Cells in the test groups included no the compound II. […]

[3] = system: Liver Tumor Cell (Huh-7 cell strain); experiment: MTT cell viability assay; assay type: cell-based; settings: Homo sapiens
[4] = system: ERK1/2, p38 and JNK1/2 in breast tumor cells; experiment: western blotting of MAPK proteins and phosphorylation; assay type: cell-based, human; settings: 2 μM, 0-120 min
Procedure: as §1

IC50 [3]: 15.1 µM
SMILES: COC1=C(OC)C(=O)C(C)=C(C)C1=O [compound II]
phosphorylation of PI3K and Akt [1]: probably inhibited
protein expression of PI3K and Akt [1]: not affected
enzyme activity of MMP2 [2]: no enzyme activity
phosphorylation of ERK1/2, p38 and JNK1/2 [4]: probably inhibited
protein expression of ERK1/2, p38 and JNK1/2 [4]: not affected
